Values quoted from earlier work as cited in patent US12661328B2, “Methods of treating anti-NMDAR-associated neuropsychiatric disorders” (Vanderbilt University, priority 2018, dated 2026).

What was measured:
[1] = system: voltage-dependent calcium, sodium, or potassium channels
[2] = system: extrasynaptic NMDA receptors; details: Xia et al., 2010
[3] = system: γ-aminobutyric acid (GABA), benzodiazepine, dopamine, adrenergic, histamine, or glycine receptors

SMILES: CC12CC3CC(C)(C1)CC(N)(C3)C2 [Memantine, 1-amino-3,5-dimethyladamantane]
- affinity for voltage-dependent calcium, sodium, or potassium channels [1]: no affinity
- affinity for NMDA receptors (NMDA receptors): low to moderate-affinity
- concentration range of relatively specific inhibition of extrasynaptic NMDA receptors [2]: low micromolar range
- affinity for GABA, benzodiazepine, dopamine, adrenergic, histamine, or glycine receptors [3]: no affinity
